# Reference: patent publication US20090068653A1, “BIOCHEMICAL AND GENETIC ANALYSIS FOR PREDICTION OF BREAST CANCER RISK” (priority 2006, published 2009)
# Where a name gives a salt, the structure may show the parent alone. Read-outs that look alike come from different tables or passages of the source.
# What was measured:
# [1] = system: renal cancer; conditions: hamster, in vivo; cited from earlier work
# [2] = system: renal DNA; conditions: in vivo; cited from earlier work
# [3] = system: DNA; conditions: cited from earlier work
# [4] = system: DNA; conditions: cited from earlier work; remark: listed apart in the source
# [5] = cited from earlier work
# [6] = single oral doses; cited from earlier work
# [7] = system: incidence of breast cancer; conditions: large study of use to prevent and treat osteoporosis; cited from earlier work
# [8] = system: estrogen receptors; conditions: preclinical data; cited from earlier work
# [9] = system: CYP1B1 mRNA; conditions: primary cultures of normal human epidermal keratinocytes, 24-hour treatment; cited from earlier work
# [10] = system: rat mammary carcinoma induced by dimethylbenzanthracene (DMBA); conditions: cited from earlier work
# [11] = cited from earlier work; remark: listed apart in the source
# [12] = system: breast cancer incidence; conditions: women at increased risk of the disease; cited from earlier work
# [13] = system: COMT; conditions: cited from earlier work
# [14] = system: CYP1A1
molecule,measurement,setting,value
C[C@]12CC[C@@H]3c4cc(O)c(O)cc4CC[C@H]3[C@@H]1CC[C@@H]2O [2-OHE2],induction of renal cancer,[1],not
same,"levels of oxidized base 8-hydroxy-deoxyguanosine, oxidative DNA damage",[2],did not cause oxidative DNA damage
same,DNA single-strand breaks,[3],negligible effect
C[C@]12CC[C@@H]3c4ccc(O)c(O)c4CC[C@H]3[C@@H]1CCC2=O [4-OHE1],induction of renal cancer,[1],induced renal cancer
same,"levels of oxidized base 8-hydroxy-deoxyguanosine, oxidative DNA damage",[2],significantly increased
C[C@]12CC[C@@H]3c4ccc(O)c(O)c4CC[C@H]3[C@@H]1CC[C@@H]2O [4-OHE2],induction of renal cancer,[1],induced renal cancer
same,"levels of oxidized base 8-hydroxy-deoxyguanosine, oxidative DNA damage",[2],significantly increased
same,DNA single-strand breaks,[3],induced DNA single-strand breaks
"C[C@]12CC[C@@H]3C4=C(CC[C@H]3[C@@H]1CCC2=O)C(=O)C(=O)C=C4 [E1-3,4Q]",levels of depurinating DNA adducts,[4],two to three orders of magnitude higher
"C[C@]12CC[C@@H]3C4=C(CC[C@H]3[C@@H]1CC[C@@H]2O)C(=O)C(=O)C=C4 [E2-3,4Q]",levels of depurinating DNA adducts,[4],two to three orders of magnitude higher
"O=C(c1ccc(OCCN2CCCCC2)cc1)c1c(-c2ccc(O)cc2)sc2cc(O)ccc12 [Raloxifene HCl, methanone, [6-hydroxy-2-(4-hydroxyphenyl)benzo[b]thien-3-yl]-[4-[2-(1-piperidinyl)ethoxy]phenyl]-hydrochloride]",solubility in water,[5],very slightly soluble
O=C(c1ccc(OCCN2CCCCC2)cc1)c1c(-c2ccc(O)cc2)sc2cc(O)ccc12 [Raloxifene],apparent oral clearance,[6],44.1 L/kg per hour
same,incidence of breast cancer,[7],reduce the incidence of breast cancer
same,estrogen receptor action in uterine and breast tissues,[8],estrogen antagonist
"Clc1cc2c(cc1Cl)Oc1cc(Cl)c(Cl)cc1O2 [TCDD, 2,3,7,8-tetrachlorodibenzo-p-dioxin]",increase of CYP1B1 mRNA levels,[9],approximately 100 fold
"CC/C(=C(\c1ccccc1)c1ccc(OCCN(C)C)cc1)c1ccccc1 [Tamoxifen, reference compound]",induction of rat mammary carcinoma induced by DMBA,[10]; rat,inhibits
same,regression of DMBA-induced tumors in situ,[10]; rats,causes the regression
same,average steady-state plasma concentration,"[11]; 10 mg tamoxifen twice daily for 3 months, patients",120 ng/mL
same,average steady-state plasma concentration,[11]; 20 mg tamoxifen once daily for 3 months,122 ng/mL
same,time to steady state concentrations after initiation of therapy,[11]; in vivo,about 4 weeks
same,average peak plasma concentration,[11]; single oral dose of 20 mg tamoxifen,40 ng/mL
same,time of peak plasma concentration after dosing,[11]; single oral dose of 20 mg,approximately 5 hours
same,reduction of breast cancer incidence,[12],49%
"108Val (wt): wild-type COMT enzyme (protein, UniProt P21964 1-271, looked up) Catechol O-methyltransferase: MPEAPPLLLAAVLLGLVLLVVLLLLLRHWGWGLCLIGWNEFILQPIHNLLMGDTKEQRILNHVLQHAEPGNAQSVLEAIDTYCEQKEWAMNVGDKKGKIVDAVIQEHQPSVLLELGAYCGYSAVRMARLLSPGARLITIEINPDCAAITQRMVDFAGVKDKVTLVVGASQDIIPQLKKKYDVDTLDMVFLDHWKDRYLPDTLLLEECGLLRKGTVLLADNVICPGAPDFLAHVRGSSCFECTHYQSFLEYREVVDGLEKAIYKGPGSEAGP",Km,"[13]; reaction 2-OHE2 → 2-MeOE2, COMT",117 µM
same,Km,"[13]; reaction 2-OHE2 → 2-OH-3-MeOE2, COMT",51 µM
same,Km,"[13]; reaction 4-OHE2 → 4-MeOE2, COMT",24 µM
"461Asn-462Ile: purified recombinant CYP1A1 variant 461Thr→Asn (protein, UniProt P04798 1-512, looked up, variant T461N) Cytochrome P450 1A1: MLFPISMSATEFLLASVIFCLVFWVIRASRPQVPKGLKNPPGPWGWPLIGHMLTLGKNPHLALSRMSQQYGDVLQIRIGSTPVVVLSGLDTIRQALVRQGDDFKGRPDLYTFTLISNGQSMSFSPDSGPVWAARRRLAQNGLKSFSIASDPASSTSCYLEEHVSKEAEVLISTLQELMAGPGHFNPYRYVVVSVTNVICAICFGRRYDHNHQELLSLVNLNNNFGEVVGSGNPADFIPILRYLPNPSLNAFKDLNEKFYSFMQKMVKEHYKTFEKGHIRDITDSLIEHCQEKQLDENANVQLSDEKIINIVLDLFGAGFDTVTTAISWSLMYLVMNPRVQRKIQEELDTVIGRSRRPRLSDRSHLPYMEAFILETFRHSSFVPFTIPHSTTRDTSLKGFYIPKGRCVFVNQWQINHDQKLWVNPSEFLPERFLTPDGAIDKVLSEKVIIFGMGKRKCIGENIARWEVFLFLAILLQRVEFSVPLGVKVDMTPIYGLTMKHACCEHFQMQLRS",Km,[14],23 µM
"461Thr-462Val: purified recombinant CYP1A1 variant 462Ile→Val (protein, UniProt P04798 1-512, looked up, variant I462V) Cytochrome P450 1A1: MLFPISMSATEFLLASVIFCLVFWVIRASRPQVPKGLKNPPGPWGWPLIGHMLTLGKNPHLALSRMSQQYGDVLQIRIGSTPVVVLSGLDTIRQALVRQGDDFKGRPDLYTFTLISNGQSMSFSPDSGPVWAARRRLAQNGLKSFSIASDPASSTSCYLEEHVSKEAEVLISTLQELMAGPGHFNPYRYVVVSVTNVICAICFGRRYDHNHQELLSLVNLNNNFGEVVGSGNPADFIPILRYLPNPSLNAFKDLNEKFYSFMQKMVKEHYKTFEKGHIRDITDSLIEHCQEKQLDENANVQLSDEKIINIVLDLFGAGFDTVTTAISWSLMYLVMNPRVQRKIQEELDTVIGRSRRPRLSDRSHLPYMEAFILETFRHSSFVPFTIPHSTTRDTSLKGFYIPKGRCVFVNQWQINHDQKLWVNPSEFLPERFLTPDGAIDKVLSEKVIIFGMGKRKCIGETVARWEVFLFLAILLQRVEFSVPLGVKVDMTPIYGLTMKHACCEHFQMQLRS",Km,[14],18 µM
"461Asn-462Val: purified recombinant CYP1A1 variant 461Asn-462Val (protein, UniProt P04798 1-512, looked up, variant T461N I462V) Cytochrome P450 1A1: MLFPISMSATEFLLASVIFCLVFWVIRASRPQVPKGLKNPPGPWGWPLIGHMLTLGKNPHLALSRMSQQYGDVLQIRIGSTPVVVLSGLDTIRQALVRQGDDFKGRPDLYTFTLISNGQSMSFSPDSGPVWAARRRLAQNGLKSFSIASDPASSTSCYLEEHVSKEAEVLISTLQELMAGPGHFNPYRYVVVSVTNVICAICFGRRYDHNHQELLSLVNLNNNFGEVVGSGNPADFIPILRYLPNPSLNAFKDLNEKFYSFMQKMVKEHYKTFEKGHIRDITDSLIEHCQEKQLDENANVQLSDEKIINIVLDLFGAGFDTVTTAISWSLMYLVMNPRVQRKIQEELDTVIGRSRRPRLSDRSHLPYMEAFILETFRHSSFVPFTIPHSTTRDTSLKGFYIPKGRCVFVNQWQINHDQKLWVNPSEFLPERFLTPDGAIDKVLSEKVIIFGMGKRKCIGENVARWEVFLFLAILLQRVEFSVPLGVKVDMTPIYGLTMKHACCEHFQMQLRS",Km,[14],23 µM
